In ChEMBL document CHEMBL1148206, “Novel sesquiterpenoid matrix metalloproteinase-3 inhibitors from an acid mine waste extremophile” (J Nat Prod, 2004):
In brackets after ≈: the same amount, converted by molar mass.

What was measured:
[1] = biological target: Stromelysin-1 (Homo sapiens) (UniProt P08254); assay: Inhibition of MMP3
Caspase-1 (Homo sapiens) = biological target: T1, Caspase-1 (Homo sapiens) (UniProt P29466); assay: Inhibition of caspase 1
T1 sequence (whole entry): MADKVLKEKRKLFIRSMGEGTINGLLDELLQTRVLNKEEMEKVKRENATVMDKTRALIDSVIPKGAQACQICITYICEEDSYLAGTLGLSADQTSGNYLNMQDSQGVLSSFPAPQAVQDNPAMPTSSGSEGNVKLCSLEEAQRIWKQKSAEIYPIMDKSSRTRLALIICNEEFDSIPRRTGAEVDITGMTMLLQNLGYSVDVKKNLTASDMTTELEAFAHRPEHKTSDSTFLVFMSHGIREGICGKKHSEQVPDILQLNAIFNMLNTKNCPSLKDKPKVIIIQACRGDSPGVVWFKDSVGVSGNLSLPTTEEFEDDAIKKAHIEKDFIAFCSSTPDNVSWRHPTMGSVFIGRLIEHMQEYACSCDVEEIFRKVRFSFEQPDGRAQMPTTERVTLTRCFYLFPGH

Sequence of Stromelysin-1 (Homo sapiens) (P08254 100-477 limits assumed): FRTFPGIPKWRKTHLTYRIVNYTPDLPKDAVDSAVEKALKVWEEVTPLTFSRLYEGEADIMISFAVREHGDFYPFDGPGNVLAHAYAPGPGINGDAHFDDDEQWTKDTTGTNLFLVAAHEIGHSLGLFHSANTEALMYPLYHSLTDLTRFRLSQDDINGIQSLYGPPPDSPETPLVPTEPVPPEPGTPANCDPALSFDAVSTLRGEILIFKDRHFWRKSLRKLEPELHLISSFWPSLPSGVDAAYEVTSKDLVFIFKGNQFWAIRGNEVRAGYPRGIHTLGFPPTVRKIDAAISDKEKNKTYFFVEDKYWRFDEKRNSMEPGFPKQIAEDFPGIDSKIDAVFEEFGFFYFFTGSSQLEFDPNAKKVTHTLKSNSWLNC

MIC50 [1]	MIC50 (Caspase-1 (Homo sapiens))	Compound
0.3 µM (≈ 0.0805 µg/mL)	30 µM (≈ 8.05 µg/mL)	CC(C)=CCC/C(C)=C1\C[C@@H](O)[C@](C)(O)[C@@H](O)C1=O
0.3 µM (≈ 0.0805 µg/mL)	30 µM (≈ 8.05 µg/mL)	C=C(CCC=C(C)C)[C@H]1C[C@@H](O)[C@](C)(O)[C@@H](O)C1=O
0.3 µM (≈ 0.0799 µg/mL)	30 µM (≈ 7.99 µg/mL)	C=C(CCC=C(C)C)C1=C[C@@H](O)[C@](C)(O)[C@@H](O)C1=O
